# According to PMC9398908, “GLP-1-mediated delivery of tesaglitazar improves obesity and glucose metabolism in male mice” (Nature Metabolism, 2022):
# Where “and” joins values, the source holds several entries; their conditions need not be identical. Identical values can stand only once.
# Columns and labels:
# [1] = target: T1, hGLP-1R (Homo sapiens, UniProt P43220); assay: Ligand-induced hGLP-1R-GFP Mini-Gαs recruitment (BRET) in mouse MIN6 β-cells; assay type: cell-based; settings: Fig. 1d, in words
# T1 construct: host or cells: HEK293T, transient transfection
# T1 sequence (P43220 24-463): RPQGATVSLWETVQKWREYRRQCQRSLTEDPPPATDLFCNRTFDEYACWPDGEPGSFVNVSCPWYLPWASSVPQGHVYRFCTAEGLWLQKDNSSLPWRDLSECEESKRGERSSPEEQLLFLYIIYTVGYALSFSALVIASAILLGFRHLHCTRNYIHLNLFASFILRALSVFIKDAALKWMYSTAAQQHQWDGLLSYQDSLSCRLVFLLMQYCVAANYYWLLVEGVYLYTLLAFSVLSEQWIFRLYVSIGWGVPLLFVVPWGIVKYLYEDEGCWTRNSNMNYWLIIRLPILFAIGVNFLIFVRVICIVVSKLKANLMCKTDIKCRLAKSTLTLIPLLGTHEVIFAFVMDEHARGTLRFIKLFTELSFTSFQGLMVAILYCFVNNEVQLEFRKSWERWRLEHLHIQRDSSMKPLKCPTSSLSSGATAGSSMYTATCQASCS
# Description: (§1) HEK293T cells (700,000 per well) were seeded in six-well plates and incubated to 70% confluency in DMEM (10% FBS, 1% Pen/Strep). Twenty-four hours following seeding, transient transfections were performed using Lipofectamine 2000 (catalogue no. 11668019, Invitrogen) according to the manufacturer’s protocol without including additional transformation carrier DNA.
# (§2) Twenty-four hours following transfection, HEK293T cells or MIN6 cells were washed with PBS and resuspended in FluoroBrite phenol red-free complete media (catalogue no. A1896701, Life Technologies) containing 5% FBS and 2 mM of L-glutamine (catalogue no. 25030081, Life Technologies). 100,000 cells per well were plated into poly-D-lysine-coated (catalogue no. P6403, Sigma-Aldrich) 96-well white polystyrene LumiNunc plates (catalogue no. 10072151, Thermo Fisher Scientific). After 24 h, the media was replaced with PBS (catalogue no. 10010056, Gibco) containing 10 μM of coelenterazine-h (catalogue no. S2011, Promega) or 1:500 dilution of NanoGlo (catalogue no. N1110, Promega). BRET measurements were taken every 30 s–2 min using a PHERAstar FS multi-mode microplate reader. […] The resulting ligand-specific ratiometric BRET signals were normalized to vehicle producing the ‘ligand-induced BRET ratio’[37], followed by an additional normalization step to well-specific baseline readings.
# [2] = target: T1, hGLP-1R; assay: Ligand-induced hGLP-1R-Rluc8 internalization (BRET) in mouse MIN6 β-cells; assay type: cell-based; settings: Fig. 1f, in words
# Description: as §1, §2
# [3] = system: DIO mice; assay: In vivo glucose-stimulated insulin secretion in DIO mice (Fig. 2i); parameters: species or system mouse; settings: Figure 2i, individual mice
# [4] = system: lean C57BL/6J mice; assay: 14-day treatment of lean mice: body weight, plasma cholesterol, triglycerides, AST, ALT, heart weight (Fig. 2n–s); assay type: in vivo, mouse; parameters: Cholesterol / TAG: unit not given here
# Description: Glp1r^−/− mice were kindly provided by D. Drucker (University of Toronto, Canada). All wildtype and knockout mice used in our studies were in-house bred on a C57BL/6J background. Mice were double-housed and kept in a constant environment with the ambient temperature set to 22 ± 2 °C with constant humidity (45–65%) and a 12 h/12 h light/dark cycle with lights off from 06:00 until 18:00. For studies in DIO mice, male C57BL/6J mice were fed with a high-fat diet comprising 58% kilocalories from fat (D12331, Research Diets). db/db mice were fed with a normal chow diet (T1314, Altromin GmbH) throughout the study. At the beginning of each experiment, mice were equally distributed into experimental groups according to their body weight and body composition. All animal studies were approved by the State of Bavaria, Germany, or the Insitutional Animal Care and Use Committee of the University of Cincinnati, OH, USA and conducted on the basis of the underlying animal welfare law of the respective countries. Compounds were dissolved in PBS and were s.c. administered with a volume of 5 μl g^−1 body weight in the indicated doses between 15:00 and 16:00.
# [5] = system: cFOS; assay: cFOS positive neurons in hypothalamic nuclei (ARC, VMH, DMH) after a single s.c. dose (Fig. 7a,b; Extended Data Fig. 4a–c); assay type: in vivo, mouse
# Description: For cFOS analysis, mice were treated s.c. with a single dose of 150 nmol kg^−1. Tissues were harvested 90 min following drug exposure. Fixed brains were coronally cryosectioned and 35-μm-thick slices were immunolabelled with the monoclonal rabbit anti-cFOS antibody (1:400, Invitrogen, no. MA5-15055) and the antirabbit Alexa546 secondary antibody (1:4,000, Invitrogen, no. A10040). According to the Allen mouse brain atlas, the ARC and the dorsomedial and ventromedial hypothalamic nuclei were captured at ×20 magnification using the Leica SP8 confocal microscope. In each region, the number of cFOS positive cells was counted in a blinded manner using Fiji/ImageJ software. For assessment of central nervous system drug appearance, mice (n = 3–4 each group) were treated with a single s.c. dose of the Cy5-labelled peptides (150 nmol kg^−1). After 90 min, tissues were harvested and processed similar to the cFOS analysis.
compound,measurement,setting,value
"CCO[C@@H](Cc1ccc(OCCc2ccc(OS(C)(=O)=O)cc2)cc1)C(=O)O [tesaglitazar, (S)-2-ethoxy-3-(4-(4-((methylsulfonyl)oxy)phenethoxy)phenyl) propanoic acid]",GLP-1R-mediated Gαs recruitment,[1],had no effect
same,GLP-1R internalization,[2],had no effect
same,GSIS,[3],0.684 and 1.33 and 1.611 and 0.796 and 0.457 and 0.687 and 1.335 and 1.19
same,Heart weight/Tibia,"[4]; 14-day treatment, individual animals (Fig. 2s)",88.25 and 101.20 and 133.32 and 102.79 and 98.68 and 111.28 and 98.00 and 103.11
same,plasma cholesterol levels,"[4]; 14 days, 50 nmol kg−1 per day, Fig. 2o, in words",reduced plasma cholesterol levels
same,TAG,"[4]; plasma triglycerides, 14-day treatment, individual animals (Fig. 2p)",28.51 and 67.33 and 61.82 and 37.82 and 28.64 and 34.88 and 35.62 and 62.31
same,Cholesterol,"[4]; plasma, 14-day treatment, individual animals (Fig. 2o)",68.85 and 109.93 and 69.31 and 90.92 and 65.38 and 84.58 and 89.99 and 80.51
same,ALT,"[4]; plasma, 14-day treatment, individual animals (Fig. 2q), in U/L (unit assumed)",7.51 and 24.40 and 11.85 and 4.07 and 8.93 and 10.70 and 5.04 and 14.23
same,AST,"[4]; plasma, 14-day treatment, individual animals (Fig. 2r), in U/L (unit assumed)",11.14 and 10.87 and 31.82 and 15.56 and 14.94 and 16.00 and 16.09 and 19.09
same,cFOS (cFos positive neurons in the ARC),"[5]; Fig. 7b, 47-week-old male DIO mice, single s.c. 150 nmol kg−1, 90 min, individual mice",43 and 38 and 21 and 45
same,cFOS,"[5]; Suppl. Fig. 4b, animal 1 of the group",55
same,cFOS,"[5]; Suppl. Fig. 4b, animal 2 of the group",124
same,cFOS,"[5]; Suppl. Fig. 4b, animal 3 of the group",77
same,cFOS,"[5]; Suppl. Fig. 4b, animal 4 of the group",96
same,cFOS,"[5]; Suppl. Fig. 4c, animal 1 of the group",13
same,cFOS,"[5]; Suppl. Fig. 4c, animal 2 of the group",9
same,cFOS,"[5]; Suppl. Fig. 4c, animal 3 of the group",15
same,cFOS,"[5]; Suppl. Fig. 4c, animal 4 of the group",20
